Reference: US20140094424A1, “MICROBICIDAL COMPOSITIONS AND METHODS OF PRODUCTION USE THEREOF” (priority 2011, published 2014)

How the values were obtained:
[1] = system: Gram positive rods (S); experiment: MBC (minimum bactericidal concentration) test in Wash NEXT reagent; type: cell-based
[2] = system: Pseudomonas aeruginosa (AY); experiment: as above; type: cell-based

Measured: MBC test growth score

Cc1cc(NS(=O)(=O)c2ccc(N)cc2)no1 [Sulfamethoxazole, sulfamethoxazole]
+: [1]; 10% preservative, 8 hour | [1]; 10% preservative, 24 hour | [1]; 10% preservative, 48 hour | [1]; 10% preservative, 72 hour | [1]; 10% preservative, 7 day | [1]; 10% preservative, 14 day | [1]; 20% preservative, 8 hour | [1]; 20% preservative, 24 hour | [1]; 20% preservative, 48 hour | [1]; 20% preservative, 72 hour | [1]; 20% preservative, 7 day | [1]; 20% preservative, 14 day | [1]; 30% preservative, 8 hour | [1]; 30% preservative, 24 hour | [1]; 30% preservative, 48 hour | [1]; 30% preservative, 72 hour | [1]; 30% preservative, 7 day | [1]; 30% preservative, 14 day | [1]; 40% preservative, 8 hour | [1]; 40% preservative, 24 hour | [1]; 40% preservative, 48 hour | [1]; 40% preservative, 72 hour | [1]; 40% preservative, 7 day | [1]; 40% preservative, 14 day | [1]; 50% preservative, 8 hour | [1]; 50% preservative, 24 hour | [1]; 50% preservative, 48 hour | [1]; 50% preservative, 72 hour | [1]; 50% preservative, 7 day | [1]; 50% preservative, 14 day | [1]; 60% preservative, 8 hour | [1]; 60% preservative, 24 hour | [1]; 60% preservative, 48 hour | [1]; 60% preservative, 72 hour | [1]; 60% preservative, 7 day | [1]; 60% preservative, 14 day | [1]; 70% preservative, 8 hour | [1]; 70% preservative, 24 hour | [1]; 70% preservative, 48 hour | [1]; 70% preservative, 72 hour | [1]; 70% preservative, 7 day | [1]; 70% preservative, 14 day | [1]; 80% preservative, 8 hour | [1]; 80% preservative, 24 hour | [1]; 80% preservative, 48 hour | [1]; 80% preservative, 72 hour | [1]; 80% preservative, 7 day | [1]; 80% preservative, 14 day | [1]; 90% preservative, 8 hour | [1]; 90% preservative, 24 hour | [1]; 90% preservative, 48 hour | [1]; 90% preservative, 72 hour | [1]; 90% preservative, 7 day | [1]; 90% preservative, 14 day | [1]; 100% preservative, 8 hour | [1]; 100% preservative, 24 hour | [1]; 100% preservative, 48 hour | [1]; 100% preservative, 72 hour | [1]; 100% preservative, 7 day | [1]; 100% preservative, 14 day | [2]; 10% preservative, 8 hour | [2]; 10% preservative, 24 hour | [2]; 10% preservative, 48 hour | [2]; 10% preservative, 72 hour | [2]; 20% preservative, 8 hour | [2]; 20% preservative, 24 hour | [2]; 20% preservative, 48 hour | [2]; 20% preservative, 72 hour | [2]; 30% preservative, 8 hour | [2]; 30% preservative, 24 hour | [2]; 30% preservative, 48 hour | [2]; 30% preservative, 72 hour | [2]; 40% preservative, 8 hour | [2]; 40% preservative, 24 hour | [2]; 40% preservative, 48 hour | [2]; 40% preservative, 72 hour | [2]; 50% preservative, 8 hour | [2]; 50% preservative, 24 hour | [2]; 50% preservative, 48 hour | [2]; 50% preservative, 72 hour | [2]; 60% preservative, 8 hour | [2]; 60% preservative, 24 hour | [2]; 60% preservative, 48 hour | [2]; 60% preservative, 72 hour | [2]; 70% preservative, 8 hour | [2]; 70% preservative, 24 hour | [2]; 70% preservative, 48 hour | [2]; 70% preservative, 72 hour | [2]; 80% preservative, 8 hour | [2]; 80% preservative, 24 hour | [2]; 80% preservative, 48 hour | [2]; 80% preservative, 72 hour | [2]; 90% preservative, 8 hour | [2]; 90% preservative, 24 hour | [2]; 90% preservative, 48 hour | [2]; 90% preservative, 72 hour | [2]; 100% preservative, 8 hour | [2]; 100% preservative, 24 hour | [2]; 100% preservative, 48 hour | [2]; 100% preservative, 72 hour
